# Entries after “also recorded” stand apart in the source; their conditions may differ. Like-named read-outs stand apart in the source and are kept apart here.
# How the values were obtained:
# [1] = test system: inward rectifier potassium current (IK1); assay: Voltage clamp of inward rectifier IK1 in canine ventricular myocytes; format: cell-based; settings: ranolazine up to 100 μM
# Protocol: Myocytes were isolated by enzymatic dissociation from a wedge-shaped section of the left ventricular free wall supplied by the left circumflex coronary artery. Cells from the epicardial and midmyocardial regions of the left ventricle were used in this study.
# Inward rectifier potassium current (IK), slow delayed rectifier potassium current (IKs), and rapid delayed rectifier potassium current (IKr) were recorded at 37° C. using conventional whole cell voltage clamp configuration.
# IK1 was measured using an external solution containing 3 μM ouabain and 5 μM nifedipine to block the sodium-potassium pump and L-type calcium current (ICa,L), respectively. […] 5 μM nifedipine was present in the external solution when IKr was being recorded. […]
# IKr was measured as the time-dependent tail current elicited at a potential of −40 mV following a short 250 ms depolarizing pulse to 30 mV. Data are presented as mean ±S.E.M. IK1 was recorded during 900 msec voltage steps applied from a holding potential of −40 mV to test potentials ranging from −100 mV to 0 mV, and was characterized as the 5 msec average of the steady state current at the end of the test pulse.
# The inward rectifier, IK1, was recorded using perforated-patch voltage clamp techniques. […] Panel B plots composite data illustrating the current-voltage relations constructed from the average current measured at the end of each test pulse
# [2] = test system: transient outward current (Ito); assay: Transient outward current voltage clamp in isolated canine left ventricular myocytes; format: cell-based; settings: for Effect on Ito: any of the test voltages
# late INa = late INa (Canis lupus familiaris, UniProt Q865W3); assay: Late INa during action potential voltage clamp in canine midmyocardial myocytes; format: cell-based
# [3] = test system: guinea pig ventricular myocytes; assay: Action potential duration, EADs and triggered activity in guinea pig ventricular myocytes; settings: for Reduction of ATX-II-induced prolongation of APD50: ATX-II 10-20 nmol/L; for Attenuation of ATXII-induced prolongation of APD50: ATXII 10-40 nmol/L
# Protocol: Single ventricular myocytes were isolated from the hearts of adult, male guinea pigs (Harlan). In brief, the hearts were perfused with warm (35° C.) and oxygenated solutions in the following order: 1) Tyrode solution containing (in mmol/L) 140 NaCl, 4.6 KCl, 1.8 CaCl2, 1.1 MgSO4, 10 glucose and 5 HEPES, pH 7.4, for 5 minutes; 2) Ca^2+-free solution containing (in mmol/L) 100 NaCl, 30 KCl, 2 MgSO4, 10 glucose, 5 HEPES, 20 taurine, and 5 pyruvate, pH 7.4, for 5 minutes; and 3) Ca^2+-free solution containing sollagenase (120 units/ml) and albumin (2 mg/ml), for 20 minutes. At the end of the perfusion, the ventricles were removed, minced, and gently shaken for 10 minutes in solution #3. Isolated cells were harvested from the cell suspension.
# Myocytes were placed into a recording chamber and superfused with Tyrode solution at 35° C. Drugs were applied via the superfusate. Action potentials were measured using glass microelectrodes filled with a solution containing (in mmol/L) 120 K-aspartate, 20 KCl, 1 MgCl2, 4 Na2ATP, 0.1 Na3GTP, 10 glucose, 1 EGTA and 10 HEPES (pH 7.2). Microelectrode resistance was 1-3 MΩ. An Axopatch-200 amplifier, a DigiData-1200A interface and pCLAMP6 software were used to perform electrophysiological measurements. Action potentials were induced by 5-ms depolarizing pulses applied at various frequencies as indicated. The duration of action potential was measured at 50% (APD50) and 90% (APD90) repolarization.
# 1) Ventricular myocytes were electrically stimulated at a frequency of 0.5, 1 or 2 Hz. Each myocyte was treated with 3, 10 and 30 μmol/L ranolazine. The effect of ranolazine on action potential duration at each pacing frequency was determined from 4 myocytes.
# 2) Action potentials were elicited at a frequency of 0.25 Hz, and the effect of ranolazine (10 μmol/L) on action potential duration was examined in the presence of 5 μmol/L quinidine. Experiments were performed on 4 myocytes.
# Following the procedures and protocols of Example 21, guinea pig ventricular myocytes were electrically stimulated in the presence of ranolazine either alone or in the presence of ATX II [a sea anemone toxin known to mimic LQT3 syndrome by slowing Na^+-channel inactivation from the open state and thereby increasing the peak and late Na^+ current (INa) of cardiomyocytes]. ATXII is known to induce early afterdepolarizations (EADs) and triggered activity and ventricular tachycardia.
# Action potentials were recorded using the whole-cell patch-electrode technique. Ventricular monophasic action potentials and electrograms were recorded from isolated hearts.
# The ventricular APD of guinea pigs isolated myocytes and hearts was measured, respectively, at 50% (APD50) and 90% (MAPD90) repolarization.
# [4] = ranolazine 10 μmol/L, ATX-II plus either E-4031 or 293B
# Chain of late INa (Q865W3 1-2013): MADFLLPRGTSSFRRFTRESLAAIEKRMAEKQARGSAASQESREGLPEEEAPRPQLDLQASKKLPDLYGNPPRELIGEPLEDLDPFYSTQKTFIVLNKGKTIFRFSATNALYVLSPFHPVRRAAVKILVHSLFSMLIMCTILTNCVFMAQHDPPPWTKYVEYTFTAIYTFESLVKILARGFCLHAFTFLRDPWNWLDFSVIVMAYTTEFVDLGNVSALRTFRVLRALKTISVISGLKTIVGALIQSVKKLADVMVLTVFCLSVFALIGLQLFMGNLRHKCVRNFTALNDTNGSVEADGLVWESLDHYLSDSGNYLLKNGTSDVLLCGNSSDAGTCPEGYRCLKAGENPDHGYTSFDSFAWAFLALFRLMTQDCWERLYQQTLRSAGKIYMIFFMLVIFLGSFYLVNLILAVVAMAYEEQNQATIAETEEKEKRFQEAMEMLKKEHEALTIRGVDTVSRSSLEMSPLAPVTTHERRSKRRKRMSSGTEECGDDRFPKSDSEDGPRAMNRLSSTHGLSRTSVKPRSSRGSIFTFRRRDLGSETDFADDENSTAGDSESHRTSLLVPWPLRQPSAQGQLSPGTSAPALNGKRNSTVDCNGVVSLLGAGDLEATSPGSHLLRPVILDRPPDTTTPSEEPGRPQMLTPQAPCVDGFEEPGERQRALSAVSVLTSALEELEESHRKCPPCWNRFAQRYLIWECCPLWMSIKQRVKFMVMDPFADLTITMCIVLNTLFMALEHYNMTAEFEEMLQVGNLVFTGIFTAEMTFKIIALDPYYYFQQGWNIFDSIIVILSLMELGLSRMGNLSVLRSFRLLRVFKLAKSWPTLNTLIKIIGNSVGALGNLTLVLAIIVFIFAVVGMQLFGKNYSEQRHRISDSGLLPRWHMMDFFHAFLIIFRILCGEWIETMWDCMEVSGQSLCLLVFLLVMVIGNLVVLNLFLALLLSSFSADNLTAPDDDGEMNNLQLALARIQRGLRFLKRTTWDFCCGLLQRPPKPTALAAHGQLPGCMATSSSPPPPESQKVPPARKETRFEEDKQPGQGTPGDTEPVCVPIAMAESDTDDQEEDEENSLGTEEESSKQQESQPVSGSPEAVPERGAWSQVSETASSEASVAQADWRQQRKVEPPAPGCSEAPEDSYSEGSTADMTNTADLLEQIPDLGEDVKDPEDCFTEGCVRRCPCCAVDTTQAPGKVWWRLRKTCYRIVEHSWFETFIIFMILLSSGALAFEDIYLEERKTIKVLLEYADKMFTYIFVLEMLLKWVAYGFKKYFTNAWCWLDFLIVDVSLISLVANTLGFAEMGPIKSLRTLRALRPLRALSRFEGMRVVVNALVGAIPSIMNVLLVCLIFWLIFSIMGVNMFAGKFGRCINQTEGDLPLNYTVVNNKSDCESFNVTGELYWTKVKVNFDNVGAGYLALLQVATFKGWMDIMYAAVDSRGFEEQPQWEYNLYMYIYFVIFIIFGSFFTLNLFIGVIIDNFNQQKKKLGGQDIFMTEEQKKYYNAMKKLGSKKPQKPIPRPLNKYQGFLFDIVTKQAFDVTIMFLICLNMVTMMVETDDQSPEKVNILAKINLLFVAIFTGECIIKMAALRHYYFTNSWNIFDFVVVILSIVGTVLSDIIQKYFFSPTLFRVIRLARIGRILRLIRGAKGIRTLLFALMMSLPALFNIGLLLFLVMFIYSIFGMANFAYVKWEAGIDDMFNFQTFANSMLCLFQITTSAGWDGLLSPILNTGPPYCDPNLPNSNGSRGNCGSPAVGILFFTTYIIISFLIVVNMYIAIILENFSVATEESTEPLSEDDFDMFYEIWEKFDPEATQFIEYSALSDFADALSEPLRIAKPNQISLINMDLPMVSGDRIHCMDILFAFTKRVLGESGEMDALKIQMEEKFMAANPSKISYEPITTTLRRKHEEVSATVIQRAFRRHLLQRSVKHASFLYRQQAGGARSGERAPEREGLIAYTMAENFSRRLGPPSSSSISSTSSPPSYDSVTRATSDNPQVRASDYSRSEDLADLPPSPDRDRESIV
structure (smiles),measurement,setting,value
"COc1ccccc1OCC(O)CN1CCN(CC(=O)Nc2c(C)cccc2C)CC1 (racemic) [ranolazine, N-(2,6-dimethylphenyl)-4-[2-hydroxy-3-(2-methoxyphenoxy)propyl]-1-piperazineacetamide]",Effect on IK1,[1],no change
same,Effect on IK1,[1]; listed as Ranolazine,did not alter
same,Effect on Ito,[2]; ranolazine 10 μM,no effect
same,Effect on Ito,[2]; ranolazine 20 μM,no effect
same,Reduction of peak Ito,"[2]; ranolazine 50 μM, 4 min",less than 10
same,Reduction of Ito,"[2]; ranolazine 50 μM, test potential 10 mV",10±2%
same,Reduction of Ito,"[2]; ranolazine 100 μM, test potential 0 mV",16±3%
same,Reduction of Ito,"[2]; ranolazine 100 μM, test potential 10 mV",17±4%
same,IC50,"late INa; BCL 2000 ms, first value (plateau, 20 mV), read-out: Half-inhibition of late INa",5.9 µM
same,IC50,"late INa; BCL 2000 ms, second value (−28 mV), read-out: Half-inhibition of late INa",20.8 µM
same,IC50,"late INa; basic cycle length 300 ms, read-out: Half-inhibition of INa,late",11.5 µM
same,IC50,"late INa; basic cycle length 2000 ms, read-out: Half-inhibition of INa,late",20.8 µM
same,Reduction of ATX-II-induced prolongation of APD50,[3]; ranolazine 0.1 μmol/L,29±1%
same,Reduction of ATX-II-induced prolongation of APD50,[3]; ranolazine 0.3 μmol/L,47±1%
same,Reduction of ATX-II-induced prolongation of APD50,[3]; ranolazine 1 μmol/L,63±3%
same,Attenuation of ATXII-induced prolongation of APD50,[3]; ranolazine 1 μmol/L,60±4%
same,Reduction of ATX-II-induced prolongation of APD50,[3]; ranolazine 3 μmol/L,79±1%
same,Attenuation of ATXII-induced prolongation of APD50,[3]; ranolazine 3 μmol/L,80±2%
same,Reduction of ATX-II-induced prolongation of APD50,[3]; ranolazine 10 μmol/L,86±2%
same,Effect on EADs,[3]; [4],completely abolished the EADs
same,Reversal of the prolongation of APD50,[3]; [4],about 70%
same,Attenuation of ATXII-induced prolongation of APD50,[3]; ranolazine 10 μmol/L,86±2%
same,Suppression of quinidine-induced EADs and triggered activity,"[3]; ranolazine 10 μmol/L, quinidine 2.5 μmol/L",effective in suppressing EADs; also recorded: effective in suppressing triggered activity; also recorded: suppressed EADs and TA
same,Effect on quinidine-induced action potential prolongation,"[3]; ranolazine 10 μmol/L, quinidine 5 μmol/L, 0.25 Hz",attenuated the effect of quinidine
same,Reduction of ATX-II-induced prolongation of APD50,[3]; ranolazine 30 μmol/L,99±1%
same,Attenuation of ATXII-induced prolongation of APD50,[3]; ranolazine 30 μmol/L,99±1%
same,Effect on APD50 and APD90,"[3]; ranolazine 3, 10, 30 μmol/L, 0.5, 1, 2 Hz",moderate and concentration-dependent shortening

# Reference: patent US20080109040A1, “METHOD OF TREATING ARRHYTHMIAS” (priority 2002, published 2008)
